Measured values from patent publication US20250387353A1 (SpringWorks Therapeutics, Inc., priority 2024, published 2025).

What was measured:
[1] = Pharmacokinetic parameters and characteristics of mirdametinib (Table A); format: in vivo, human; details: for Tmax [median (range)]: post dose
Procedure: (§1) Study treatment was administered orally at a twice daily (BID) dose specified in the table below. Dosing was on a 28-day Cycle (4-week course) with a 3 week on/1 week off schedule. The treatment period will last for up to 24 Cycles followed by a 30-day Safety Follow-Up period.

[2] = system: NF1-associated plexiform neurofibromas (PN); test: Phase 2b trial in adult and pediatric patients with NF1-associated inoperable plexiform neurofibromas; response by BICR volumetric MRI per REiNS criteria; format: in vivo, human; details: for DoR ≥12 months: Kaplan-Meier based approach, data cut-off September 2023
Procedure: Participants were screened (assessed for eligibility as described below). […] The median age was 34.5 years (range 18 to 69 years); 85% were white and 64% were female. […] The most commonly reported morbidities were pain (90%) and disfigurement or major deformity (52%).
The median age was 10 years (range 2 to 17 years); 66% were white and 54% were female. […] The most commonly reported morbidities were pain (70%) and disfigurement or major deformity (50%).
as §1
A partial response was defined as PN decrease≥20% compared to baseline using centrally read MRI volumetric analysis.
The major efficacy outcome measure was confirmed objective response rate (ORR), defined as the percentage of patients with complete response (disappearance of the target PN) or confirmed partial response (≥20% reduction in PN volume confirmed at a subsequent tumor assessment within 2-6 months during the 24-cycle treatment phase). Responses were assessed by blinded independent central review (BICR) using volumetric magnetic resonance imaging (MRI) analysis per Response Evaluation in Neurofibromatosis and Schwannomatosis (REINS) criteria. A secondary efficacy objective was to determine the duration of response for patients who achieved a confirmed objective response.

[3] = Pediatric patients (2 to <18 years)

O=C(NOC[C@H](O)CO)c1ccc(F)c(F)c1Nc1ccc(I)cc1F (single isomer, unassigned) [mirdametinib]
Steady-state exposure AUClast [geometric mean (geometric % CV)] ([1]; Adult patients (≥18 years)): Adult patients (≥18 years): 431 (43%) ng · h/mL
Steady-state exposure Cmax [geometric mean (geometric % CV)] ([1]; Adult patients (≥18 years)): Adult patients (≥18 years): 188 (52%) ng/mL
Tmax [median (range)] ([1]; Capsule): Capsule: 1.08 (0.00-4.17) hours post dose
Steady-state exposure AUClast [geometric mean (geometric % CV)] [1, 3]: Pediatric patients (2 to <18 years): 459 (46%) ng · h/mL
Steady-state exposure Cmax [geometric mean (geometric % CV)] [1, 3]: Pediatric patients (2 to <18 years): 191 (62%) ng/mL
Tmax [median (range)] ([1]; Tablet): Tablet: 0.83 (0.42-3.02) hours post dose
DoR ≥12 months ([2]; Adult responders): 18 (75%) n (%)
DoR ≥12 months ([2]; Pediatric responders): 22 (76%) n (%)
Median time to onset of response ([2]; adult cohort, range 4.0 to 19.0 months): 7.8 months
Median time to onset of response ([2]; pediatric cohort, range 4.1 to 18.8 months): 7.9 months
